Data published in PMC4261083, “An atypical residue in the pore of Varroa destructor GABA-activated RDL receptors affects picrotoxin block and thymol modulation” (Insect Biochemistry and Molecular Biology, 2014).
Substitutions are numbered along the chain they refer to.

Columns and labels:
Experiment in all cases: GABA activation of RDL receptors, two electrode voltage clamp in Xenopus oocytes
Type in all cases: cell-based
[1] = molecular target: T1, N-7′H mutant Drosophila RDL receptor (Drosophila melanogaster, UniProt P25123, N292H); details: N-7′H RDL
T1 construct: expressed in transfected cells; host or cells: Xenopus laevis oocytes injected with cRNA
T1 sequence (P25123 45-606 N292H): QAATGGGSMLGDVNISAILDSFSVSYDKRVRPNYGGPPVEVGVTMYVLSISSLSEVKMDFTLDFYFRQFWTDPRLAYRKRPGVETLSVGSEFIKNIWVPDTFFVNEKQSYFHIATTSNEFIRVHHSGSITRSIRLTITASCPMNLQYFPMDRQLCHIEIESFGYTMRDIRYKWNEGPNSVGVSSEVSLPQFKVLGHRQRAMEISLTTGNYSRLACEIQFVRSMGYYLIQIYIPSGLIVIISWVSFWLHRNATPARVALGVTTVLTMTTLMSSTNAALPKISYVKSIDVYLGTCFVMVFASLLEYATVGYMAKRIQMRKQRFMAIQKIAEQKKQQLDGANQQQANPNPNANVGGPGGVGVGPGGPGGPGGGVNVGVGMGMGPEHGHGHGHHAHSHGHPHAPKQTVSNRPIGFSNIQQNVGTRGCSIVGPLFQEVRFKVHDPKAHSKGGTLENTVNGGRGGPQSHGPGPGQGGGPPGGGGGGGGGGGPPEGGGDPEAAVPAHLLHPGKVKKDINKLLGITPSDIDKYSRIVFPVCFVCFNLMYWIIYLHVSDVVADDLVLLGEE
Protocol: (§1) X. laevis oocyte-positive females were purchased from NASCO (Fort Atkinson, Wisconsin, USA) and maintained according to standard methods. Harvested stage V-VI Xenopus oocytes were washed in four changes of ND96 (96 mM NaCl, 2 mM KCl, 1 mM MgCl2, 1 mM CaCl2, 5 mM HEPES, pH 7.5), de-folliculated in 1.5 mg ml^−1 collagenase Type 1A for approximately 2 h, washed again in four changes of ND96 and stored in ND96 containing 2.5 mM sodium pyruvate, 0.7 mM theophylline and […].
(§2) Site directed mutagenesis was performed with the QuikChange mutagenesis kit (Agilent, La Jolla, CA). cRNA was transcribed in vitro from linearised pGEMHE cDNA template using the mMessage mMachine T7 Transcription kit (Ambion, Austin, Texas, USA). Stage V and VI oocytes were injected with 5 ng cRNA, incubated at 18 °C, and currents recorded 18–24 h post-injection.
(§3) Currents were recorded at 5 kHz and filtered at a frequency of 1 kHz. Micro-electrodes were fabricated from borosilicate glass (GC120TF-10, Harvard Apparatus, Edenbridge, Kent, UK) using a one stage horizontal pull (P-87, Sutter Instrument Company, California, USA) and filled with 3 M KCl. […] Oocytes were perfused with ND96 at a constant rate of 12 ml min^−1. Drug application was via a simple gravity fed system calibrated to run at the same rate.
(§4) Analysis and curve fitting was performed using Prism v5 (GraphPad Software, San Diego, California, USA). Concentration-response data for each oocyte was normalised to the maximum current for that oocyte. The mean and S.E.M. for a series of oocytes were fitted to the four parameter logistic equation in Prism.

[2] = molecular target: T2, T6′M mutant Drosophila RDL receptor (Drosophila melanogaster, UniProt P25123, T305M)
T2 construct: expressed in transfected cells; host or cells: Xenopus laevis oocytes injected with cRNA
T2 sequence (P25123 45-606 T305M): T1 sequence (P25123 45-606 N292H) with H248N, T261M
Protocol: as §1, §2, §3, §4

[3] = molecular target: T3, 4M2 mutant Drosophila RDL receptor (N-7′H, T6′M, A20′S and A21′Q) (Drosophila melanogaster, UniProt P25123, A319S/A320Q/N292H/T305M); details: 4M2 RDL
T3 construct: expressed in transfected cells; host or cells: Xenopus laevis oocytes injected with cRNA
T3 sequence (P25123 45-606 N292H/T305M/A319S/A320Q): T1 sequence (P25123 45-606 N292H) with T261M, A275S, A276Q
Protocol: as §1, §2, §3, §4

SMILES: NCCCC(=O)O [GABA]
- GABA nH (Hill slope) [1]: 2.5 ± 0.5
- GABA nH (Hill slope) [2]: 1.4 ± 0.2
- GABA nH (Hill slope) [3]: 1.0 ± 0.3
